Laboratory results reported in paper PMC7717600, “Novel [(N-alkyl-3-indolylmethylene)hydrazono]oxindoles arrest cell cycle and induce cell apoptosis by inhibiting CDK2 and Bcl-2: synthesis, biological evaluation and in silico studies” (Journal of Enzyme Inhibition and Medicinal Chemistry, 2020).
Read-outs that look alike come from different tables or passages of the source.

How the values were obtained:
[1] = system: A498; test: cells; conditions: Homo sapiens
[2] = target: CDK2 (Homo sapiens, UniProt P24941); test: CDK2 inhibition assay; type: biochemical; conditions: CDK2, mean ± SE of three
Procedure: and of the test compound in a final volume of 10 µL, all in a reaction buffer (60 mM HEPES-NaOH, pH 7.5, 3 mM MgCl2, 3 mM MnCl2, 3 μM Na-orthovanadate, 1.2 mM DTT, 2.5 μg / 50 μl PEG20.000). The reactions were stopped by adding 5 µL of 3 % aq. H3PO4. Aliquots were spotted onto P-81 phosphocellulose (Whatman), washed 3× with 0.5 % aq. H3PO4 and finally air-dried. Kinase inhibition was quantified using a FLA-7000 digital image analyzer (Fujifilm).

[3] = system: SF-295; test: cells; conditions: Homo sapiens
[4] = system: DU-145; test: cells; conditions: Homo sapiens
[5] = system: 786-0; test: cells; conditions: Homo sapiens
[6] = system: SNB-75; test: cells; conditions: Homo sapiens
[7] = system: UO-31; test: cells; conditions: Homo sapiens
[8] = system: breast T-47D cancer cells; test: Cell cycle analysis by DNA flow cytometry; type: cell-based, human; conditions: 8a at GI50 concentration (0.41 µM), 24 h
Procedure: were washed twice with ice-cold phosphate buffered saline (PBS). Subsequently, the treated cells were collected by centrifugation, fixed in ice-cold 70% (v/v) ethanol, washed with PBS, re-suspended with 100 μg/mL RNase, stained with 40 μg/mL PI, and analyzed by flow cytometry using FACS Calibur (Becton Dickinson, BD, Franklin Lakes, NJ, USA). The cell cycle distributions were calculated using CellQuest software 5.1 (Becton Dickinson).

[9] = system: SK-MEL-5; test: cells; conditions: Homo sapiens
[10] = system: EKVX; test: cells; conditions: Homo sapiens
[11] = system: NCI-H23; test: cells; conditions: Homo sapiens
[12] = system: HOP-62; test: cells; conditions: Homo sapiens
[13] = system: SF-539; test: cells; conditions: Homo sapiens
[14] = system: SR; test: cells; conditions: Homo sapiens
[15] = system: MCF7; test: cells; conditions: Homo sapiens
[16] = system: KM12; test: cells; conditions: Homo sapiens
[17] = system: SNB-19; test: cells; conditions: Homo sapiens
[18] = system: HCT-116; test: cells; conditions: Homo sapiens
[19] = system: HS 578T; test: cells; conditions: Homo sapiens
[20] = system: HCT-15; test: cells; conditions: Homo sapiens
[21] = system: SK-OV-3; test: cells; conditions: Homo sapiens, SK-OV-3, read-out: LC50
[22] = system: panel of 59 human cancer cell lines; test: NCI screening, panel and subpanel summaries; conditions: for GI50: Homo sapiens
Procedure: GI50 values reflect the level for growth inhibitory effect, whereas TGI represents cytostatic impact. In addition, LC50 parameter is considered to be the cytotoxicity parameter for the examined hybrid.
Furthermore, dividing the full-panel MG-MID (µM) for the examined derivative by its individual subpanel MG-MID (µM) provides an index which is regarded as a measure for its selectivity.
The NCI-USA anticancer screening was carried out following the NCI, Bethesda, Drug Evaluation Branch protocol[22–24], utilising the SRB protein assay[21], as reported earlier[34]^,[35].
NCI-in vitro antitumor activity towards 59 cancer cell lines
The cytotoxicity assays were performed at National Cancer Institute (NCI), Bethesda, USA (against 59 cell lines). The human tumor cell lines of the cancer screening panel were grown in
screening experiment, cells were inoculated into 96 well microtiter plates in 100 µ at plating densities ranging from 5000 to 40,000 cells/well depending on the doubling time of individual
and 100% relative humidity for 24 h prior to addition of experimental drugs. After 24 h, two
plates of each cell line were fixed in situ with trichloroacetic acid (TCA), to represent a
measurement of the cell population for each cell line at the time of drug addition (Tz).
Experimental drugs were solubilized in dimethyl sulfoxide at 400-fold the desired final
maximum test concentration and stored frozen prior to use. At the time of drug addition, an
aliquot of frozen concentrate was thawed and diluted to twice the desired final maximum test
concentration with complete medium containing 50 µg/ml gentamicin. Additional four, 10-fold
or ½ log serial dilutions were made to provide a total of five drug concentrations plus control.
Aliquots of 100 µl of these different drug dilutions were added to the appropriate microtiter wells
already containing 100 µl of medium, resulting in the required final drug concentrations.
Triplicate wells were prepared for each individual dose. Following drug addition, the plates were

[23] = system: SK-MEL-2; test: cells; conditions: Homo sapiens
[24] = system: OVCAR-3; test: cells; conditions: Homo sapiens
[25] = system: NCI/ADR-RES; test: cells; conditions: Homo sapiens
[26] = system: NCI-H522; test: cells; conditions: Homo sapiens
[27] = system: SN12C; test: cells; conditions: Homo sapiens
[28] = system: HOP-92; test: cells; conditions: Homo sapiens
[29] = system: breast T-47D cancer cells; test: Annexin V-FITC/PI apoptosis assay; type: cell-based, human
Excerpt: In an attempt to further investigate whether the antiproliferative activity for conjugate 8a is harmonious with the apoptosis induction within T-47D cells pointed out by the increased cell population in sub-G1 phase in 8a-treated T-47D cells (Figure 3), Annexin V-FITC/PI dual staining analysis was used for the apoptosis assay (Figure 4).
Phosphatidylserine externalisation effect of conjugate 8a over breast T-47D cancer cell line was investigated using Annexin-V-FITC Apoptosis Detection Kit by flow cytometry, as described earlier.
4.2.4. Cell Cycle Analysis
Subsequently, the treated cells
Annexin V-FITC Apoptosis Assay
period of 30 min at 4 °C.
Technologies, Darmstadt, Germany).
μl PEG20.000). […] H3PO4. Aliquots were […]

[30] = system: MDA-MB-231/ATCC; test: cells; conditions: Homo sapiens

## CCCn1cc(C=NN=C2C(=O)Nc3ccc(C)cc32)c2ccccc21 [Compound 8a]
[1]; A498
  GI50: 1.37 µM
[1]; A498, read-out: LC50
  CC50: > 100 µM
[2]
  IC50: 0.85 ± 0.03 µM
[3]; SF-295
  GI50: 8.41 µM
[3]; SF-295, read-out: LC50
  CC50: > 100 µM
[4]; DU-145
  GI50: 3.88 µM
[4]; DU-145, read-out: LC50
  CC50: > 100 µM
[5]; 786-0
  GI50: 5.94 µM
[5]; 786-0, read-out: LC50
  CC50: > 100 µM
[6]; SNB-75
  GI50: 2.31 µM
[6]; SNB-75, read-out: LC50
  CC50: > 100 µM
[7]; UO-31
  GI50: 2.28 µM
[7]; UO-31, read-out: LC50
  CC50: > 100 µM
[8]; control 1.25%
  cell population in sub-G1 phase: 17.73%
[8]; control 19.19%
  G2/M phase fraction: 34.05%
[9]; SK-MEL-5
  GI50: 2.86 µM
[9]; SK-MEL-5, read-out: LC50, SK-MEL-5
  CC50: 47.4 µM
[10]
  GI50: 2.36 µM
[10]; read-out: LC50
  CC50: > 100 µM
[11]; NCI-H23
  GI50: 3.13 µM
[11]; NCI-H23, read-out: LC50
  CC50: > 100 µM
[12]; HOP-62
  GI50: 4.17 µM
[12]; HOP-62, read-out: LC50
  CC50: > 100 µM
[13]; SF-539
  GI50: 2.69 µM
[13]; SF-539, read-out: LC50
  CC50: > 100 µM
[14]
  GI50: 0.521 µM
[14]; read-out: LC50
  CC50: > 100 µM
[15]; MCF7
  GI50: 1.54 µM
[15]; MCF7, read-out: LC50
  CC50: > 100 µM
[16]; KM12
  GI50: 3.22 µM
[16]; KM12, read-out: LC50
  CC50: > 100 µM
[17]; SNB-19
  GI50: 4.24 µM
[17]; SNB-19, read-out: LC50
  CC50: > 100 µM
[18]; HCT-116
  GI50: 1.75 µM
[18]; HCT-116, read-out: LC50, HCT-116
  CC50: 19 µM
[19]
  GI50: 11.3 µM
[19]; read-out: LC50
  CC50: > 100 µM
[20]; HCT-15
  GI50: 2.63 µM
[20]; HCT-15, read-out: LC50
  CC50: > 100 µM
[21]
  CC50: > 100 µM
[22]; 10 µM single dose, all cell lines
  mean GI %: 59%
[22]; 1.00E-5 Molar, one dose mean graph
  Mean Growth Percent: 41.08%
[22]; Breast Cancer subpanel
  Selectivity index: 1.00
[22]; CNS Cancer subpanel
  Selectivity index: 0.75
[22]; Colon Cancer subpanel
  Selectivity index: 1.25
[22]; read-out: Full panel MG-MID (GI50), five-dose
  GI50: 3.1 µM
[22]; read-out: GI50 values range, five-dose, across cell lines except UACC-257, TK-10, HS 578 T
  GI50: 1.17 to 8.41 µM
[22]; read-out: MG-MID (GI50), Breast Cancer subpanel
  GI50: 3.09 µM
[22]; read-out: MG-MID (GI50), CNS Cancer subpanel
  GI50: 4.08 µM
[22]; read-out: MG-MID (GI50), Colon Cancer subpanel
  GI50: 2.47 µM
[22]; read-out: MG-MID (GI50), Leukaemia subpanel
  GI50: 1.33 µM
[22]; read-out: MG-MID (GI50), Melanoma subpanel
  GI50: 3.45 µM
[22]; read-out: MG-MID (GI50), NSCL Cancer subpanel
  GI50: 3.22 µM
[22]; read-out: MG-MID (GI50), Ovarian Cancer subpanel
  GI50: 3.24 µM
[22]; read-out: MG-MID (GI50), Prostate Cancer subpanel
  GI50: 2.85 µM
[22]; read-out: MG-MID (GI50), Renal Cancer subpanel
  GI50: 4.23 µM
[22]; read-out: sub-panel GI50 (MG-MID) range, five-dose
  GI50: 1.33 to 4.23 µM
[22]; Leukaemia subpanel
  Selectivity index: 2.33
[22]; Melanoma subpanel
  Selectivity index: 0.89
[22]; NSCL Cancer subpanel
  Selectivity index: 0.96
[22]; Ovarian Cancer subpanel
  Selectivity index: 0.95
[22]; Prostate Cancer subpanel
  Selectivity index: 1.08
[22]; Renal Cancer subpanel
  Selectivity index: 0.73
[22]; five-dose mean graph
  Log10GI50 _MID: -5.59 Molar
  Log10LC50 _MID: -4.12 Molar
  Log10TGI _MID: -4.69 Molar
[22]; five-dose, against 22 cancer cell lines
  TGI range: 2.96 to 8.03 µM
[22]; five-dose, remaining cancer cell lines
  TGI interval: 10.6 to 96.6 µM
[22]; full-panel MG-MID / subpanel MG-MID
  selectivity ratios range: 0.73 to 2.33
[23]; SK-MEL-2
  GI50: 2.42 µM
[23]; SK-MEL-2, read-out: LC50
  CC50: > 100 µM
[24]; OVCAR-3
  GI50: 1.36 µM
[24]; OVCAR-3, read-out: LC50
  CC50: > 100 µM
[25]
  GI50: 6.39 µM
[25]; read-out: LC50
  CC50: > 100 µM
[26]; NCI-H522
  GI50: 1.81 µM
[26]; NCI-H522, read-out: LC50
  CC50: > 100 µM
[27]
  GI50: 3.2 µM
[27]; read-out: LC50
  CC50: > 100 µM
[28]; HOP-92
  GI50: 1.87 µM
[28]; HOP-92, read-out: LC50
  CC50: > 100 µM
[29]; control 0.26%
  apoptotic cells, early apoptotic phase: 4.82%
[29]; control 0.47%
  apoptotic cells, late apoptotic phase: 14.62%
[29]; vs untreated control
  increase in total apoptosis: about 26 fold
[30]; MDA-MB-231
  GI50: 1.81 µM
[30]; MDA-MB-231, read-out: LC50
  CC50: > 100 µM
